Assay results as given in the RepoRT retention time repository.

assay: HILIC, Waters ACQUITY UPLC BEH HILIC, 150 × 2.1 mm, 1.7 µm, 40 °C, 0.6 mL/min, estimated dead time 0.55 min; A: water + 0.1% formic acid + 20 mM ammonium formate, pH 3.5; B: acetonitrile + 0.1% formic acid, pH 3; gradient (min/%B) 0/95 0.1/95 4.6/80 5.5/50 7.0/50 7.1/95 7.2/95 7.3/95 7.4/95 7.5/95 7.6/95 7.7/95 7.8/95 12.50/95 12.65/95; details: stereoisomer not certain

| SMILES | LC retention time |
| --- | --- |
| O=C(O)C1CCCN1 (configuration not stated) [Proline] | 4.46 min |
| c1cncc(C2CCCN2)c1 (configuration not stated) [Nornicotine] | 4.22 min |
| C[N+](C)(C)CCO [Choline] | 3.97 min |
| C[n+]1cccc(C(=O)[O-])c1 [Trigonelline] | 4.85 min |
| C[n+]1ccccc1 [N-Methylpyridinium] | 3.82 min |
| Cc1ncc(C[n+]2csc(CCO)c2C)c(N)n1 [Thiamine] | 5.49 min |
| CCCCCCCCCCCCCCCCCC(=O)OC(CC(=O)[O-])C[N+](C)(C)C (configuration not stated) [Stearoylcarnitine CAR(18:0)] | 3.74 min |
| C[N+]1(C)CCCC1C(=O)[O-] (configuration not stated) [Proline Betaine] | 4.91 min |
| NCCS(=O)(=O)O [Taurine] | 2.61 min |
| NC(Cc1ccc(OS(=O)(=O)O)cc1)C(=O)O (configuration not stated) [O-Sulfotyrosine] | 3.2 min |
| Cn1c(=O)[nH]c2ncn(C)c2c1=O [Paraxanthine] | 0.948 min |
| C[N+](C)(C)CCCCC(N)C(=O)[O-] [N6,N6,N6-Trimethyl-L-lysine] | 6.16 min |
| NCCc1ccc(OS(=O)(=O)O)c(O)c1 [Dopamine-4-O-sulfate] | 1.07 min |
| Cn1ccc(=O)c(C(N)=O)c1 [N1-methyl-4-pyridone-3-carboxamide] | 1.5 min |
| NCCc1ccccc1 [Phenylethylamine] | 2.91 min |
| O=c1[nH]cnc2nc[nH]c12 [Hypoxanthine] | 1.59 min |
| NC(Cc1ccccc1)C(=O)O (configuration not stated) [Phenylalanine] | 3.78 min |
| CC(=O)NCCCNCCCCNCCCNC(C)=O [N1,N12-Diacetylspermine] | 6.1 min |
| CC(=O)NCCCNCCCCN [N1-Acetylspermidine] | 5.99 min |
| NCCc1ccc(O)c(OS(=O)(=O)O)c1 [Dopamine-3-O-sulfate] | 1.07 min |
| O=C(O)C=Cc1cnc[nH]1 [Urocanic acid] | 1.3 min |
| C[N+](C)(C)CCCC(=O)[O-] [4-Trimethylammoniobutanoic acid (deoxycarnitine)] | 4.91 min |
| Nc1c(O)cccc1C(=O)O [3-Hydroxyanthranilic acid] | 0.69 min |

| SMILES | LC retention time |
| --- | --- |
| NCCCCC(N)C(=O)O (configuration not stated) [Lysine] | 5.98 min |
| NC(Cc1cnc[nH]1)C(=O)O (configuration not stated) [Histidine] | 6.15 min |
| CN(C)CC(=O)O [N,N-Dimethylglycine] | 4.64 min |
| CN1CC(=O)NC1=N [Creatinine] | 2.51 min |
| CCCCCCCCCCCCCCCC(=O)OC(CC(=O)[O-])C[N+](C)(C)C (configuration not stated) [Palmitoylcarnitine CAR(C16:0)] | 3.78 min |
| CC(=O)NCCCCN [N-Acetylputrescine] | 4.4 min |
| NCCc1c[nH]c2ccccc12 [Tryptamine] | 2.79 min |
| Nc1nc2nc[nH]c2c(=O)[nH]1 [Guanine] | 2.17 min |
| Nc1ccnc(=O)[nH]1 [Cytosine] | 2.39 min |
| Cn1cnc2c(ncn2C2OC(CO)C(O)C2O)c1=N (configuration not stated) [1-Methyladenosine] | 4.1 min |
| Cn1c(=O)c2c(ncn2C)n(C)c1=O [Caffeine] | 0.85 min |
| NC(=O)c1ccc[n+]([O-])c1 [Nicotinamide N-oxide] | 2.02 min |
| Cn1c[n+](C2OC(CO)C(O)C2O)c2nc(N)[nH]c(=O)c21 (configuration not stated) [7-Methylguanosine] | 1.97 min |
| CC(=O)CC(c1ccccc1)c1c(O)c2ccccc2oc1=O (configuration not stated) [Warfarin] | 0.673 min |
| CN1C(=O)CCC1c1ccc[n+]([O-])c1 (configuration not stated) [Cotinine N-oxide] | 2.87 min |
| CC(N)C(=O)O (configuration not stated) [Alanine] | 4.57 min |
| Cn1cc(C(N)=O)ccc1=O [N1-methyl-2-pyridone-5-carboxamide] | 1.24 min |
| NC(=O)c1cccnc1 [Niacinamide] | 1.07 min |
| CCCCCCCCCCCCCC(=O)OC(CC(=O)[O-])C[N+](C)(C)C (configuration not stated) [Tetradecanoylcarnitine CAR(14:0)] | 3.78 min |
| C[n+]1cccc(C(N)=O)c1 [1-Methylnicotinamide] | 4.08 min |
| CSCC1OC(n2cnc3c(N)ncnc32)C(O)C1O (configuration not stated) [5'-Methylthioadenosine] | 1.3 min |
| CN(C)C(=N)N=C(N)N [1,1-Dimethylbiguanide (Metformin)] | 3.42 min |
| C=CC1CN2CCC1CC2C(O)c1ccnc2ccc(OC)cc12 (configuration not stated) [Quinine] | 3.03 min |

Second part, the compound after the results:

| LC retention time | SMILES |
| --- | --- |
| 5.92 min | NC(N)=NCCCC(N)C(=O)O (configuration not stated) [Arginine] |
| 5.92 min | NC(N)=NCCCCC(N)C(=O)O (configuration not stated) [Homoarginine] |
| 1.25 min | O=c1[nH]cc(C2OC(CO)C(O)C2O)c(=O)[nH]1 (configuration not stated) [Pseudouridine] |
| 5.06 min | CN(CC(=O)O)C(=N)N [Creatine] |
| 5.1 min | C[N+](C)(C)CC(CC(=O)[O-])OC(=O)CCCC(=O)O (configuration not stated) [Glutarylcarnitine CAR(5:0-DC)] |
| 1.81 min | CC(CCC(=O)NCCS(=O)(=O)O)C1CCC2C3CCC4CC(O)CCC4(C)C3CC(O)C12C (configuration not stated) [Taurodeoxycholic Acid] |
| 2.87 min | CC(CCC(=O)NCC(=O)O)C1CCC2C3C(O)CC4CC(O)CCC4(C)C3CC(O)C12C (configuration not stated) [Glycocholic Acid] |
| 6.25 min | C[S+](CCC(N)C(=O)O)CC1OC(n2cnc3c(N)ncnc32)C(O)C1O (configuration not stated) [S-Adenosylmethionine] |
| 1.85 min | CC(CCC(=O)NCC(=O)O)C1CCC2C3C(O)CC4CC(O)CCC4(C)C3CCC12C (configuration not stated) [Glycoursodeoxycholic acid] |
| 0.732 min | C=CC1=C(C)C(C=c2[nH]c(=Cc3[nH]c(C=C4NC(=O)C(C)=C4C=C)c(C)c3CCC(=O)O)c(CCC(=O)O)c2C)=NC1=O [Biliverdin] |
| 4.2 min | CCCCCC=CC(=O)OC(CC(=O)[O-])C[N+](C)(C)C (configuration not stated) [2-Octenoylcarnitine CAR(8:1)] |
| 1.61 min | O=c1[nH]cnc2c1ncn2C1OC(CO)C(O)C1O (configuration not stated) [Inosine] |
| 4.47 min | C[N+](C)(C)CC(O)(CC(=O)[O-])C(=O)Cc1ccccc1 (configuration not stated) [Phenylacetyl carnitine] |
| 1.13 min | CC(C)(CO)C(O)C(=O)NCCC(=O)O (configuration not stated) [Pantothenic acid] |
| 1.96 min | CC(CCC(=O)NCC(=O)O)C1CCC2C3CCC4CC(O)CCC4(C)C3CC(O)C12C (configuration not stated) [Glycodeoxycholic acid] |
| 3.84 min | NC(N)=NCCCC(=O)O [4-Guanidinobutanoic acid] |
| 4.93 min | CC(=O)NCCCNCCCC(=O)O [N-Acetylisoputreanine] |
| 4.59 min | CN1CCCCC1C(=O)O (configuration not stated) |

| LC retention time | SMILES |
| --- | --- |
| 5.44 min | CC(=O)NC(CCCCN)C(=O)O [N-alpha-acetyl-L-lysine] |
| 4.82 min | CCC(=O)OC(CC(=O)[O-])C[N+](C)(C)C (configuration not stated) [Propionylcarnitine CAR(3:0)] |
| 1.16 min | O=C(O)CNC(=O)c1ccccc1 [Hippuric acid] |
| 1.44 min | Cn1cnc2c(ncn2C2OC(CO)C(O)C2O)c1=O (configuration not stated) [N1-Methylinosine] |
| 4.13 min | CCCCCCCC(=O)OC(CC(=O)[O-])C[N+](C)(C)C (configuration not stated) [Octanoylcarnitine CAR(C8:0)] |
| 2.47 min | CC(CCC(=O)NCCS(=O)(=O)O)C1CCC2C3C(O)CC4CC(O)CCC4(C)C3CC(O)C12C (configuration not stated) [Taurocholic Acid] |
| 4.48 min | O=C(O)C1CCCCN1 (configuration not stated) [Pipecolic acid] |
| 5.4 min | O=C(O)[C@@H]1CCCN1C(=O)[C@@H]1CCCN1 [L-prolyl-L-proline] |
| 1.73 min | Cn1c(N)nc2c(ncn2C2OC(CO)C(O)C2O)c1=O (configuration not stated) [1-Methylguanosine] |
| 5.44 min | CC(=O)NCCCC[C@H](N)C(=O)O [N6-Acetyl-L-lysine] |
| 4.69 min | CCCC(=O)OC(CC(=O)[O-])C[N+](C)(C)C (configuration not stated) [Butyrylcarnitine] |
| 1.22 min | CC(CCC(=O)NCC(=O)O)C1CCC2C3CCC4CC(O)CCC4(C)C3CCC12C (configuration not stated) [Glycolithocholic acid] |
| 1.83 min | CC(=O)NCCCN1CCCC1=O [N-Acetylisoputreanine-gamma-lactam] |
| 5.03 min | CC(=O)OC(CC(=O)[O-])C[N+](C)(C)C [L-Acetylcarnitine CAR(2:0)] |
| 5.91 min | CN(C)C(N)=NCCC[C@H](N)C(=O)O [Asymmetric Dimethylarginine] |
| 4.39 min | CCC(C)C(=O)OC(CC(=O)[O-])C[N+](C)(C)C (configuration not stated) [2-methylbutyrylcarnitine] |
| 1.27 min | CC(=O)Nc1ccn(C2OC(CO)C(O)C2O)c(=O)n1 (configuration not stated) [N4-Acetylcytidine] |
| 3.92 min | CCCCCCCCCC(=O)OC(CC(=O)[O-])C[N+](C)(C)C (configuration not stated) [Decanoylcarnitine CAR(10:0)] |
